# Measurements: patent US10821079B2, “PKC activators and combinations thereof” (Cognitive Research Enterprises, Inc., priority 2011, dated 2020)
# Read-outs that look alike come from different tables or passages of the source.
# Key:
# PKC-δ = PKC-δ (Homo sapiens, UniProt Q05655); assay: Activation of purified PKC isozymes, radiometric: PKC-δ; format: biochemical
# Experimental: (§1) To measure PKC activity, 10 μg of protein from either cytosol or membrane was incubated for 15 min at 37° C. in the presence of 10 μM histones, 4.89 mM CaCl2, 1.2 μg/μl phosphatidyl-L-serine, 0.18 μg/μl 1,2-dioctanoyl-sn-glycerol, 10 mM MgCl2, 20 mM HEPES (pH 7.4), 0.8 mM EDTA, 4 mM EGTA, 4% glycerol, 8 μg/ml aprotinin, 8 μg/ml leupeptin, 2 mM benzamidine, and 0.5 μCi of [γ-^32P]ATP. [^32P]Phosphoprotein formation was measured by adsorption onto phosphocellulose as described previously. See Nelson et al. (2009) J Biol Chem 284, 34514-34521. For measurements of activation by RA, PKC activity was measured in the absence of diacylglycerol (DAG) and phosphatidylserine, as described by Nelson et al. (2009) J Biol Chem 284, 34514-34521. PKC-δ and PKC-ε were measured in the absence of added EGTA and CaCl^2, as described by Kanno et al. (2006) J Lipid Res 47, 1146-1156. The enzyme was provided as a purified isozyme for in vitro experiments.
# (§2) To measure PKC, 10 μl of cell homogenate or purified PKC isoform was incubated for 15 min at 37° C. in the presence of 10 μM histones, 4.89 mM CaCl2, 1.2 μg/μl phosphatidyl-L-serine, 0.18 μg/μl 1,2-dioctanoyl-sn-glycerol, 10 mM MgCl2, 20 mM HEPES (pH 7.4), 0.8 mM EDTA, 4 mM EGTA, 4% glycerol, 8 μg/ml aprotinin, 8 μg/ml leupeptin, and 2 mM benzamidine. [γ32P]ATP (0.5 μCi) was added and 32P-phosphoprotein formation was measured by adsorption onto phosphocellulose as described previously. See Nelson et al., J. Neurochemistry, 1995, 65: 2350-2357.
# (§3) PKC activity of each compound was measured in the absence of diacylglycerol and phosphatidylserine and PKC-δ and PKC-ε were measured in the absence of added EGTA and CaCl2, as described by Kanno et al., J. Lipid Res., 2006, 47: 1146-1156. Low concentrations of Ca^2+ were needed because high Ca^2+ can interact with the PKC phosphatidylserine binding site and prevents activation. […] To determine their PKC isoform specificity, the compounds were pre-incubated with purified isoforms of PKC for five minutes and the PKC activity was measured radiometrically.
# PKC-ε = biological target: T1, PKC-ε (Homo sapiens, UniProt Q02156); assay: Activation of purified PKC isozymes, radiometric: PKC-ε; format: biochemical; details: for Specificity ε/α: Activation of PKC-ε ÷ activation or inhibition of PKCα at 3 × EC50
# T1 sequence (Q02156 1-737): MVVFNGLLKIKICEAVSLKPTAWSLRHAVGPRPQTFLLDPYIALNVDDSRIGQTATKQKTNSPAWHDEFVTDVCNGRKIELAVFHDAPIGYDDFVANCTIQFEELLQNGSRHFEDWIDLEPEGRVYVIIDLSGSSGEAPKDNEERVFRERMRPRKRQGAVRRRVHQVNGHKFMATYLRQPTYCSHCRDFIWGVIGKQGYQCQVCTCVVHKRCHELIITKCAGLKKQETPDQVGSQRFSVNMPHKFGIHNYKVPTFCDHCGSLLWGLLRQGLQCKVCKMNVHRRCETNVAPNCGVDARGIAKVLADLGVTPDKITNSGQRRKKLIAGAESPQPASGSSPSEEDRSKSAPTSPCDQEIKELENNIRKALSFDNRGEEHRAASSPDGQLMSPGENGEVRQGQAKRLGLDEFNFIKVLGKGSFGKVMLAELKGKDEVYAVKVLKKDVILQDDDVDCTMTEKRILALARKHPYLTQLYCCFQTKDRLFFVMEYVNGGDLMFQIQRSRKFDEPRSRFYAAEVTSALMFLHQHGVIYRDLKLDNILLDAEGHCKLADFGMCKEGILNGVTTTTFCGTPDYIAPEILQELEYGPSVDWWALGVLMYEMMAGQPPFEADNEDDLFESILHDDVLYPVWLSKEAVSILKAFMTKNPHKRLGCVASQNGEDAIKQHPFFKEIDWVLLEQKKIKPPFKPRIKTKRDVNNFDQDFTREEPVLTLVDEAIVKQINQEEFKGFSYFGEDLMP
# Experimental: as §2, §3
# (§4) The activation and PKC isozyme specificity of DCPLA-ethyl ester was measured following the procedures in Example 1(B) and (C), except that 9 ng of the purified isozyme was used and it was pre-incubated for 5 minutes at room temperature (FIG. 3). PKC-ε activation by DCPLA-tert-butyl ester and DCPLA-retinyl ester was measured in the same manner as DCPLA-ethyl ester (FIG. 3).
# The EC50 values, PKC specificity, and activation for a select number of DCPLA esters was determined (see Table 1). EC50 values were determined by measuring the lowest concentration that activates by 50% of maximum activation. […] The specificity and activation of PKC by the various esters of DCPLA were calculated from the measurements of activation of PKC isozymes.
# PKCα = PKCα (Homo sapiens, UniProt P17252); assay: Activation of purified PKC isozymes, radiometric: PKC-α; format: biochemical
# Experimental: as §1, §2, §3, §4
# PKC = details: cited from earlier work
# [1] = cited from earlier work
# Sequence of PKC-δ (Q05655 whole entry): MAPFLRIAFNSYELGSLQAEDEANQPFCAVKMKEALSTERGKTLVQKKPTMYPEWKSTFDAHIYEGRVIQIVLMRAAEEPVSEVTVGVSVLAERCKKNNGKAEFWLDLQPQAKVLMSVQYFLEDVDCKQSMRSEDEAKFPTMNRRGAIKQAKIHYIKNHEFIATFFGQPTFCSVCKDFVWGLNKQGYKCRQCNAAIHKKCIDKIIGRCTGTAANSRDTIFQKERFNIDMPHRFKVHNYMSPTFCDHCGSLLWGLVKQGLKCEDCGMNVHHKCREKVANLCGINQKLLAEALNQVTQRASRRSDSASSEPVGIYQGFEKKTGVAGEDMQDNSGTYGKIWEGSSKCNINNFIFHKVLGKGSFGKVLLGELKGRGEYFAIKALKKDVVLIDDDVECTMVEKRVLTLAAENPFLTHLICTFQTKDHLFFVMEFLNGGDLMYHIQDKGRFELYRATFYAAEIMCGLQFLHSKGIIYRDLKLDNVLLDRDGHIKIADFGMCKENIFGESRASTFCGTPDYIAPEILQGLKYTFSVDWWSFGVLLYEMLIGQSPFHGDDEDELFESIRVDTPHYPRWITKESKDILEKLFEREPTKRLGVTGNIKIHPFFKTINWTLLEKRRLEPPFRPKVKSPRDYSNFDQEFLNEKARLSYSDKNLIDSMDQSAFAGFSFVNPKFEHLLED
structure (smiles),measurement,setting,value
CCCCCC1CC1CC1CC1CCCCCCCC(=O)OC(C)C (centres unmarked) [DCPLA-isopropyl ester],effect on PKC-δ (in words),PKC-δ,only slightly activated
same,PKC-ε activation at peak,PKC-ε,up to 40 % of control
same,concentration of maximal activation,PKC-ε,10 nM
same,Specificity ε/α,PKC-ε,1.4
same,PKC-α activation,PKCα,up to 40 % of control
CCCCCCCC(=O)OC1C(=CC(=O)OC)CC2CC(CO)OC(=O)CC(O)CCOC(CCCc3ccc(Br)cc3)CC3CCOC(C=CC(C)(C)C1(O)O2)O3 (centres unmarked) [bryolog 5],Ki,"PKC; A-ring bryologs, read-out: affinity for PKC",1.9 nM
CCCCCC1CC1CC1CC1CCCCCCCC(=O)OC1CC[C@@]2(C)C(=CC[C@H]3[C@H]4CC[C@H]([C@H](C)CCCC(C)C)[C@@]4(C)CC[C@H]32)C1 (some centres unmarked) [DCPLA-cholesteryl ester],PKC-δ activation,PKC-δ,up to 130 % of control
same,PKC-ε activation at peak,PKC-ε,up to 130 % of control
same,concentration of maximal activation,PKC-ε,0.01 nM
same,Specificity ε/α,PKC-ε,0.94
same,potency relative to Bryostatin-1,PKC-ε; concentration of maximal activity,18 ×
same,effect on PKC-α (in words),PKCα,inhibited at all concentrations
CCC/C=C/C=C/C(=O)O[C@H]1/C(=C/C(=O)OC)C[C@H]2C[C@H]([C@@H](C)O)OC(=O)C[C@H](O)C[C@@H]3C[C@H](OC(C)=O)C(C)(C)[C@](O)(C[C@@H]4C/C(=C/C(=O)OC)C[C@H](/C=C/C(C)(C)[C@]1(O)O2)O4)O3 [Bryostatin-1],time detectable in the blood,[1]; after a single injection,14 days
same,share of initial dose in the blood,"[1]; at 100 hrs, intravenous injection",1%
same,t1/2 in the blood stream,[1]; blood,1 h
CCCCCCCC(=O)O[C@H]1/C(=C/C(=O)OC)C[C@H]2C[C@H](CO)OC(=O)C[C@H](O)C[C@@H]3CCC[C@H](C[C@@H]4CCO[C@H](/C=C/C(C)(C)[C@]1(O)O2)O4)O3 [Analog 1],affinity for PKC (in words),PKC,highest affinity for PKC
same,Ki,PKC; read-out: PKC Affin,0.25 nM
